Values of other authors, collected in patent publication US5702721A (LTS Lohmann Therapie-Systeme GmbH & Co. KG, priority 1989, dated 1997).

Conditions: supersaturated solution resulting on evaporation of the highly volatile component of a mixture of volatile and non-volatile solvents

Row | SMILES | skin penetration / resorption intensification
1 | COC(=O)C1=C(C)NC(C)=C(C(=O)OC)C1c1ccccc1[N+](=O)[O-] [nifedipine] | confirmed these effects
2 | C[C@]12C=CC(=O)C=C1[C@@H](F)C[C@H]1[C@@H]3C[C@@H](O)[C@](O)(C(=O)CO)[C@@]3(C)C[C@H](O)[C@@]12F [fluocinolone] | higher skin penetration
